Tests used:
[1] = tested on: mThy1-hAPP751 APPtg mouse model of AD; assay: Electron microscopy of neuropil and amyloid in APPtg mouse brain; type: in vivo; settings: same treatments as E16
[2] = tested on: mThy1-hAPP751 APPtg mouse model of AD; assay: Aβ immunostaining of plaques in frontal cortex and hippocampus of APPtg mice; type: in vivo; settings: same treatments as E16
[3] = Pharmacokinetics and brain distribution after single administration; type: in vivo, C57/BL6 mice
[4] = tested on: mThy1-hAPP751 APPtg mouse model of AD; assay: Immunoblot of Aβ42 species in brain membrane fraction of APPtg mice; type: in vivo; settings: vs vehicle-treated APPtg mice
[5] = tested on: mThy1-hAPP751 APPtg mouse model of AD; assay: Immunohistochemistry of synaptophysin, MAP2, NeuN and GFAP in APPtg mouse brain; type: in vivo; settings: for synapse loss (SYN-immunoreactivity) in the frontal cortex / synapse loss (SYN-immunoreactivity) in the hippocampus: vs APPtg mice treated with PBS
monomeric Aβ42 = monomeric Aβ42 (Homo sapiens, UniProt P05067); assay: Fibrillization of monomeric Aβ42; type: biochemical
Sequence of monomeric Aβ42 (P05067 672-713 limits assumed): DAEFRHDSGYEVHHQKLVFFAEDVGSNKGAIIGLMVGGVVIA

[6] = molecular target: Aβ42 seeding-mediated fibril growth (Homo sapiens, UniProt P05067); assay: Aβ42 seeding polymerization assay; type: biochemical; settings: for fibril growth and number of amyloid fibrils by TEM: 3 hours incubation of seeds and monomers with compound; for inhibition at 10 µM: read-out: inhibition of seeded fibril growth (seeding capacity of short fibrils)
Sequence of Aβ42 seeding-mediated fibril growth (P05067 672-713 limits assumed): as above

Slack (Slo2.2) channels = settings: ref Yang et al., 2006; cited from earlier work
[7] = tested on: mThy1-hAPP751 APPtg mouse model of AD; assay: Aβ42 ELISA in APPtg mouse brain; type: in vivo; settings: vs vehicle-treated APPtg mice
protofibrillar Aβ42 = protofibrillar Aβ42 (Homo sapiens, UniProt P05067); assay: Conversion of Aβ42 protofibrils into mature fibrils; type: biochemical; settings: 48 hours, ThT
Sequence of protofibrillar Aβ42 (P05067 672-713 limits assumed): as above

Aβ = settings: ref Colombo et al., 2009; cited from earlier work
primary cortical neurons = settings: 0.5, 5, 10, 20 and 50 μM, 24 hours, MTT

| SMILES | amyloid fibrils in neuropil by electron microscopy [1] | status of axons/neurites in neuropil by electron microscopy [1] | levels of Aβ42 monomers and intermediate species (immunoblot, 82E1) [4] | synapse loss (SYN-immunoreactivity) in the frontal cortex [5] | synapse loss (SYN-immunoreactivity) in the hippocampus [5] | MAP2 immunoreactivity (neuronal damage) in the frontal cortex ([5]; vs vehicle-treated APPtg mice) | MAP2 immunoreactivity (neuronal damage) in the hippocampus ([5]; vs vehicle-treated APPtg mice) | NeuN immunoreactivity in the frontal cortex ([5]; vs vehicle-treated APPtg mice) | IC50 (monomeric Aβ42) | IC50 [6] | fibril growth and number of amyloid fibrils by TEM [6] | inhibition at 10 µM [6] | Aβ42 levels by ELISA, guanidine-HCl brain extractions [7] | Aβ42 levels by ELISA, membrane fractions [7] | further results |
| --- | --- | --- | --- | --- | --- | --- | --- | --- | --- | --- | --- | --- | --- | --- | --- |
| Oc1c(Cl)cc(Cl)cc1Sc1cc(Cl)cc(Cl)c1O [bithionol] | only few fibrillar aggregates | axons were comparable to controls | significant reduction | significantly reversed | significantly reversed | reversion of the damage | reversion of the damage | increase | 5.1 µM | 5.33 µM | significant inhibition of fibril growth | 60 to 80% | significant and dramatic reduction | significant and dramatic reduction | Aβ42-immunoreactivity in the hippocampus (% area of neuropil) vs vehicle APPtg [2]: significant decrease; half-life ([3]; C57/BL6, mouse, brain, iv, 10 mg/kg): 1.77 h; half-life ([3]; C57/BL6, mouse, plasma, iv, 10 mg/kg): 7.62 h; GFAP immunoreactivity (astroglial reactivity) in the frontal cortex ([5]; vs vehicle-treated APPtg mice): strong and significant reduction; activation of Slack channels (Slack (Slo2.2) channels): robust activator of Slack channels |
| O=C1c2c(O)ccc(O)c2C(=O)c2c(NCCNCCO)ccc(NCCNCCO)c21 [mitoxantrone] | only few fibrillar aggregates | axons were comparable to controls | significant reduction | significantly reversed | significantly reversed | reversion of the damage | reversion of the damage | increase | 2.5 µM | 1.7 µM | significant inhibition of fibril growth | 80 to 90% | significant and dramatic reduction | significant and dramatic reduction | inhibition of protofibril to fibril conversion (protofibrillar Aβ42): > 80%; Aβ oligomerization and fibril formation (Aβ): can block Aβ oligomerization and fibril formation; effect of compound alone on cellular viability of neurons (primary cortical neurons): significant reduction of the cellular viability only at high concentrations |
| Oc1c(Cl)cc(Cl)c(Cl)c1Cc1c(O)c(Cl)cc(Cl)c1Cl [hexachlorophene] |  |  | comparable to that observed in the vehicle-treated APPtg mice |  |  |  |  |  | 5 µM | 5.9 µM | significant inhibition of fibril growth | 60 to 80% | did not significantly affect | did not significantly affect | Kp ([3]; C57/BL6, mouse, in vivo, iv, 10 mg/kg): 0.5; brain penetration ([3]; single IV administration 10 mg/kg): 50% |

Source: PMC4323687 (Neurobiology of disease, 2014)
